The values below come from paper PMC8395317, “The Simple Method of Preparation of Highly Carboxylated Bacterial Cellulose with Ni- and Mg-Ferrite-Based Versatile Magnetic Carrier for Enzyme Immobilization” (International Journal of Molecular Sciences, 2021).

By Km is commonly meant the substrate concentration at which the rate is half of its maximum.

This experiment concerns T1, phospholipase A (PLA, Lecitase Ultra).
T1 construct: gene LIP; one fused chain: T. lanuginosus lipase N-terminal part (1-284) + F. oxysporum phospholipase A1 C-terminal part (285-339); commercial Lecitase Ultra (Sigma-Aldrich), used without further purification; free form
Nature of the experiment: p-nitrophenol release, absorbance […] nm, Michaelis-Menten nonlinear fit. It counts as biochemical, Thermomyces lanuginosus. As to conditions: free enzyme; 0.1 to 1.2 mmol/L pNPB, 50 mmol/L phosphate pH 7.0, 0.004% Triton X-100, 30 °C.

SMILES strings stand for the structures.

`CCCC(=O)Oc1ccc([N+](=O)[O-])cc1` [p-nitrophenyl-butyrate]: the Km came to 490 ± 100 µM.
